Target: T1, ligand binding domain of human RORγ (A262-S507) (Homo sapiens, UniProt P51449)
T1 construct: made in house; host or cells: E. coli
T1 sequence (P51449 262-507): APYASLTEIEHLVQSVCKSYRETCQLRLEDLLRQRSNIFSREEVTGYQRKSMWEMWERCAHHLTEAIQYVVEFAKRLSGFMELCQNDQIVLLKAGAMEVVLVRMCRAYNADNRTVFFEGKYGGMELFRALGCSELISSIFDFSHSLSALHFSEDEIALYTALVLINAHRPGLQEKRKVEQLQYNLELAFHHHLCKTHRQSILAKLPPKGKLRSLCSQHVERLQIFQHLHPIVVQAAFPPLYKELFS
Test: General RORγ SPA binding assay (competition with [3H]25-hydroxycholesterol)
Conditions: IC50, RORγ SPA binding assay, inhibition of [3H]25-hydroxycholesterol binding
How it was run: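 Step one: compound meets 50 nM nickel-purified, His-tagged protein from E. coli for 15 min at room temperature (PBS, 0.5% fatty acid free BSA). Step two: radioligand is added for another 15 min. Step three: SPA beads are added for 30 min before scintillation reading and IC50 fitting.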

SMILES	IC50
Cc1nc(C)c(C(=O)NCc2ccnc(C(F)(F)F)n2)c(C2CCN(C(=O)Oc3c(F)cccc3F)CC2)n1 [Compound A123, 2,6-Difluorophenyl 4-{2,6-dimethyl-5-[({[2-(trifluoromethyl)pyrimidin-4-yl]methyl}amino)carbonyl]pyrimidin-4-yl}piperidine-1-carboxylate]	5.4 nM
Cc1nc(C)c(C(=O)NCc2ccnc(C(F)(F)F)n2)c(C2CCN(C(=O)Oc3ccccc3F)CC2)n1 [Compound A124, 2-Fluorophenyl 4-{2,6-dimethyl-5-[({[2-(trifluoromethyl)pyrimidin-4-yl]methyl}amino)carbonyl]pyrimidin-4-yl}piperidine-1-carboxylate]	11.4 nM
Cc1nc(C)c(C(=O)NCc2ccnc(C(F)(F)F)n2)c(C2CCN(C(=O)Oc3ccccc3)CC2)n1 [Compound A125, Phenyl 4-{2,6-dimethyl-5-[({[2-(trifluoromethyl)pyrimidin-4-yl]methyl}amino)carbonyl]pyrimidin-4-yl}piperidine-1-carboxylate]	11.6 nM
Cc1nc(N)nc(C2CCN(C(=O)Oc3ccccc3F)CC2)c1C(=O)NCc1ccnc(C(F)(F)F)n1 [Compound A126, 2-Fluorophenyl 4-{2-amino-6-methyl-5-[({[2-(trifluoromethyl)pyrimidin-4-yl]methyl}amino)carbonyl]pyrimidin-4-yl}piperidine-1-carboxylate]	15.2 nM

Same assay, conditions: RORγ SPA binding assay, inhibition of [3H]25-hydroxycholesterol binding; read-out: IC50

SMILES	IC50
Cc1cc(C)cc(CNC(=O)c2cnc(C)nc2C2CCN(CC(=O)c3ccccc3Cl)CC2)c1 [Compound A115, 4-(1-(2-(2-Chlorophenyl)-2-oxoethyl)piperidin-4-yl)-N-(3,5-dimethylbenzyl)-2-methylpyrimidine-5-carboxamide]	342 nM
Cc1cc(C)cc(CNC(=O)c2cnc(C)nc2C2CCN(C(=O)C(F)(F)c3c(F)cccc3F)CC2)c1 [Compound A116, 4-{1-[(2,6-Difluorophenyl)(difluoro)acetyl]piperidin-4-yl}-N-[(3,5-dimethylphenyl)methyl]-2-methylpyrimidine-5-carboxamide]	37.1 nM
Cc1cc(C)cc(CNC(=O)c2cnc(C)nc2C2CCN(C(=O)C(F)(F)c3ccccc3)CC2)c1 [Compound A117, 4-{1-[Difluoro(phenyl)acetyl]piperidin-4-yl}-N-[(3,5-dimethylphenyl)methyl]-2-methylpyrimidine-5-carboxamide]	253 nM
Cc1cc(C)cc(CNC(=O)c2cnc(C)nc2C2CCN(C(=O)Oc3ccccc3Cl)CC2)c1 [Compound A119, 2-Chlorophenyl 4-[5-({[(3,5-dimethylphenyl)methyl]amino}carbonyl)-2-methylpyrimidin-4-yl]piperidine-1-carboxylate]	6.2 nM
Cc1cc(C)cc(CNC(=O)c2cnc(C)nc2C2CCN(C(=O)Oc3c(F)cccc3F)CC2)c1 [Compound A120, 2,6-Difluorophenyl 4-[5-({[(3,5-dimethylphenyl)methyl]amino}carbonyl)-2-methylpyrimidin-4-yl]piperidine-1-carboxylate]	6 nM
Cc1nc(C)c(C(=O)NCc2ccnc(C(F)(F)F)n2)c(C2CCN(C(=O)Nc3c(F)cccc3F)CC2)n1 [Compound A122, 4-(1-{[(2,6-difluorophenyl)amino]carbonyl}piperidin-4-yl)-2,6-dimethyl-N-{[2-(trifluoromethyl)pyrimidin-4-yl]methyl}pyrimidine-5-carboxamide]	116 nM
C/C(=N\Oc1cccc(C(F)(F)F)c1)c1c(C)nc(C)nc1C1CCN(C(=O)Cc2c(F)cccc2F)CC1 [Compound B1, (1E)-1-(4-{1-[(2,6-Difluorophenyl)acetyl]piperidin-4-yl}-2,6-dimethylpyrimidin-5-yl)ethanone O-[3-(trifluoromethyl)phenyl]]	54 nM
C/C(=N/Oc1cccc(C(F)(F)F)c1)c1cnc(C)nc1C1CCN(C(=O)Cc2c(F)cccc2F)CC1 [Compound B4, (Z)-2-(2,6-Difluorophenyl)-1-(4-(2-methyl-5-(1-(3-(trifluoromethyl)phenoxyimino)ethyl)pyrimidin-4-yl)piperidin-1-yl)ethanone]	137 nM
C/C(=N\Oc1cccc(Cl)c1)c1cnc(C)nc1C1CCN(C(=O)Cc2c(F)cccc2F)CC1 [Compound B5, (E)-1-(4-(5-(1-((3-chlorophenoxy)imino)ethyl)-2-methylpyrimidin-4-yl)piperidin-1-yl)-2-(2,6-difluorophenyl)ethanone]	2.5 nM
C/C(=N/Oc1cccc(Cl)c1)c1cnc(C)nc1C1CCN(C(=O)Cc2c(F)cccc2F)CC1 [Compound B6, (Z)-1-(4-(5-(1-((3-chlorophenoxy)imino)ethyl)-2-methylpyrimidin-4-yl)piperidin-1-yl)-2-(2,6-difluorophenyl)ethanone]	1930 nM
C/C(=N/Oc1cccc(OC(F)(F)F)c1)c1cnc(C)nc1C1CCN(C(=O)Cc2c(F)cccc2F)CC1 [Compound B8, (Z)-2-(2,6-difluorophenyl)-1-(4-(2-methyl-5-(1-((3-(trifluoromethoxy)phenoxy)imino)ethyl)pyrimidin-4-yl)piperidin-1-yl)ethanone]	1500 nM
C/C(=N\Oc1cc(C)cc(C)c1)c1cnc(C)nc1C1CCN(C(=O)Cc2c(F)cccc2F)CC1 [Compound B9, (E)-2-(2,6-difluorophenyl)-1-(4-(5-(1-((3,5-dimethylphenoxy)imino)ethyl)-2-methylpyrimidin-4-yl)piperidin-1-yl)ethanone]	2.7 nM
C/C(=N/Oc1cc(C)cc(C)c1)c1cnc(C)nc1C1CCN(C(=O)Cc2c(F)cccc2F)CC1 [Compound B10, (Z)-2-(2,6-difluorophenyl)-1-(4-(5-(1-((3,5-dimethylphenoxy)imino)ethyl)-2-methylpyrimidin-4-yl)piperidin-1-yl)ethanone]	1670 nM
C/C(=N\Oc1cc(F)cc(Cl)c1)c1cnc(C)nc1C1CCN(C(=O)Cc2c(F)cccc2F)CC1 [Compound B12, (E)-1-(4-(5-(1-((3-chloro-5-fluorophenoxy)imino)ethyl)-2-methylpyrimidin-4-yl)piperidin-1-yl)-2-(2,6-difluorophenyl)ethanone]	2.2 nM

Continued, values first:

IC50	SMILES
33.6 nM	Cc1cc(C)cc(CNC(=O)c2c(C3CCN(C(=O)Cc4c(F)cccc4F)CC3)nc(C)nc2C(F)(F)F)c1 [Compound A112, 4-(1-(2-(2,6-Difluorophenyl)acetyl)piperidin-4-yl)-N-(3,5-dimethylbenzyl)-2-methyl-6-(trifluoromethyl)pyrimidine-5-carboxamide]
338 nM	Cc1cc(C)cc(CN(C)C(=O)c2cnc(C)nc2C2CCN(C(=O)Cc3c(F)cccc3F)CC2)c1 [Compound A113, 4-(1-(2-(2,6-Difluorophenyl)acetyl)piperidin-4-yl)-N-(3,5-dimethylbenzyl)-N,2-dimethylpyrimidine-5-carboxamide]
3 nM	Cc1cc(C)cc(CNC(=O)c2cnc(C)nc2C2C=CN(C(=O)Cc3c(F)cccc3F)CC2)c1 (stereo not shown) [Compound A114, 4-(1-(2-(2,6-Difluorophenyl)acetyl)-1,2,3,4-tetrahydropyridin-4-yl)-N-(3,5-dimethylbenzyl)-2-methylpyrimidine-5-carboxamide]
51.6 nM	Cc1cc(C)cc(CNC(=O)c2cnc(C)nc2C2CCN(C(=O)C(F)(F)c3ccccc3F)CC2)c1 [Compound A118, 4-{1-[Difluoro(2-fluorophenyl)acetyl]piperidin-4-yl}-N-[(3,5-dimethylphenyl)methyl]-2-methylpyrimidine-5-carboxamide]
58.4 nM	Cc1nc(C)c(C(=O)NCc2ccnc(C(F)(F)F)n2)c(C2CCN(C(=O)Cc3c(F)cccc3F)CC2)n1 [Compound A121, 4-{1-[(2,6-Difluorophenyl)acetyl]piperidin-4-yl}-2,6-dimethyl-N-{[2-(trifluoromethyl)pyrimidin-4-yl]methyl}pyrimidine-5-carboxamide]
444 nM	C/C(=N/Oc1ccnc(C(F)(F)F)c1)c1c(C)nc(C)nc1C1CCN(C(=O)Cc2c(F)cccc2F)CC1 [Compound B2, (1Z)-1-(4-{1-[(2,6-Difluorophenyl)acetyl]piperidin-4-yl}-2,6-dimethylpyrimidin-5-yl)ethanone 0-[2-(trifluoromethyl)pyridin-4-yl]oxime]
3.1 nM	C/C(=N\Oc1cccc(C(F)(F)F)c1)c1cnc(C)nc1C1CCN(C(=O)Cc2c(F)cccc2F)CC1 [Compound B3, (E)-2-(2,6-Difluorophenyl)-1-(4-(2-methyl-5-(1-(3-(trifluoromethyl)phenoxyimino)ethyl)pyrimidin-4-yl)piperidin-1-yl)ethanone]
10.6 nM	C/C(=N\Oc1cccc(OC(F)(F)F)c1)c1cnc(C)nc1C1CCN(C(=O)Cc2c(F)cccc2F)CC1 [Compound B7, (E)-2-(2,6-difluorophenyl)-1-(4-(2-methyl-5-(1-((3-(trifluoromethoxy)phenoxy)imino)ethyl)pyrimidin-4-yl)piperidin-1-yl)ethanone]
1.7 nM	C/C(=N\Oc1cccc(C)c1)c1cnc(C)nc1C1CCN(C(=O)Cc2c(F)cccc2F)CC1 [Compound B11, (E)-2-(2,6-difluorophenyl)-1-(4-(2-methyl-5-(1-((m-tolyloxy)imino)ethyl)pyrimidin-4-yl)piperidin-1-yl)ethanone]
4.7 nM	C/C(=N\Oc1ccnc(C#N)c1)c1cnc(C)nc1C1CCN(C(=O)Cc2c(F)cccc2F)CC1 [Compound B13, (E)-4-(((1-(4-(1-(2-(2,6-difluorophenyl)acetyl)piperidin-4-yl)-2-methylpyrimidin-5-yl)ethylidene)amino)oxy)picolinonitrile]
